Read-outs that look alike come from different tables or passages of the source.
Legend:
[1] = system: J774 macrophages; assay: Resazurin viability assay in J774 macrophages; type: cell-based; details: Mus musculus, read-out: IC50 (µM) Mean ± SD J774
Protocol: The murine macrophage cell line J774A.1 (mouse, ATCC, TIB-67™) was cultivated in Dulbecco’s Modified Eagle Medium (DMEM) (high glucose, 1.5 g/L NaHCO3) supplemented with 25,000 IU/L penicillin, 25 mg/L streptomycin, and 10% FCS (heat-inactivated) in 50 mL TubeSpin bioreactors. The tubes were kept in an incubator at 37 °C and 5% CO2 on a roller culture apparatus (5 rpm). The cells were passaged twice a week, diluting them in a ratio of 1:10. The macrophages were used until passage 30. To determine the cell count, the cell suspension was resuspended and diluted 1:2 with PBS. After fixation of the cells by mixing the cell suspension 1:1 with a formaldehyde solution (2%, v/v), aliquots of the resulting suspension were transferred into a standard Neubauer chamber (VWR, Austria) and counted manually using a light microscope (Motic BA310, Austria) at a magnification of 400×.
LtP (2 × 10^6 cells/mL) in a mixture of YEM and PBS (1:1, v/v) containing 25,000 U/L penicillin, 25 mg/L streptomycin, and 6 µM hemin (YEM/PBS) were prepared. Aliquots of 200 µL of this suspension were distributed in 96-well plates. Control rows containing YEM/PBS (no activity) and with untreated LtP (100% activity) were also loaded on the plate. To the wells of third rows, compounds (leading to a final vehicle concentration of max. 2% dimethyl sulfoxide (DMSO) in the wells) were added. Subsequently, five 1:5 serial dilution steps were performed. The plates were incubated at 26 °C for 48 h. Following the incubation, 50 µL of a resazurin solution in PBS were added to each well, giving a final concentration of 20 µM. After 4 h of incubation, the fluorescence was measured at 560 nm excitation and 590 nm emission using a plate reader (Perkin Elmer Enspire, Germany). The resazurin assays with J774 cells were performed in analogy to the LtP resazurin assays. Aliquots of a J774 cell suspension in DMEM supplemented with 25,000 U/L penicillin, 25 mg/L streptomycin, and 10% FCS (heat-inactivated), giving a final cell concentration of 10^5 cells/mL, were distributed in the wells of the 96-well microplates. The cells were incubated for 24 h (37 °C, 5% CO2) to allow attachment. Then the medium was discarded and non-adherent cells were removed with 200 µL PBS per well. After the addition of DMEM, the compounds were added, and a serial dilution was performed. Control rows with DMEM (no activity) and with untreated J774 cells (100% activity) were also included. […] Then the addition of resazurin and the measurement of fluorescence were carried out in analogy to the viability assays performed in LtP.
Calculations were carried out using Microsoft Excel (Microsoft). The graphs were created using Origin 6.1 (OriginLab Corporation, Northampton, MA, USA). The half maximal inhibitory concentrations (IC50) were determined from non-linear concentration–response curves using a four-parameter logistic model and expressed as the mean ± standard deviation (SD). Statistically significant differences of p <0.05 were identified using Students t-test.

[2] = system: LtP; assay: O2 consumption of LtP (OxoPlates); type: cell-based, Leishmania tarentolae; details: 140 × 10^6 LtP/mL, 40 min; for influence on LtP respiration (oxygen consumption rate): 6.25–200 µM
Protocol: Oxygen consumption rates of LtP treated with AcEPs were measured using round-bottomed OxoPlates (OP96U, Precision Sensing GmbH, Regensburg, Germany). An aliquot of BHI culture medium was transferred to an open Erlenmeyer flask and was stirred on a magnetic stirrer for 30 min at 25 °C to saturate it with air (aBHI). Another aliquot of BHI culture medium was mixed with approximately 50 mg of the reducing agent sodium dithionite in a tightly closed falcon tube to remove the dissolved oxygen (dBHI). Aliquots of 200 µL of both calibration media were distributed to 6 wells each of the first row of an OxoPlate. To prevent oxygen exchange with the environment, 70 µL of paraffin oil were layered on top of each well containing liquid. The plate was then incubated in the dark for 15 min at 25 °C for equilibration. Then the fluorescence of both calibration media was measured at a microplate reader (Perkin Elmer Enspire, Germany) in a dual kinetic mode using an excitation wavelength of 540 nm for both of the dyes, emission wavelengths of 650 nm for the indicator dye, and 590 nm for the reference dye. The ratio of both intensities (IR) was calculated for each well and averaged giving the two calibration constants k0 or k100. From the second row on, each well was filled with 50 µL of aBHI. The third row was provided with extra 50 µL of aBHI. The respective amounts of the anthracene derivatives (Ac, AQ, AcEP1117, AcEP1118, AcEP1129, AcEP1130) were added and mixed properly. A serial dilution was performed by transferring 50 µL of the mixture in five subsequent 1:2 steps. LtP (140 × 10^6 cells/mL) were suspended in aBHI and aliquots of 150 µL were transferred to each well giving a maximal final concentration of the AcEPs of 200 µM, declining with onward 1:2 dilution steps. On top of each well, 70 µL of paraffin oil was added. The fluorescence intensity of each well was determined in 5 min intervals over 40 min. Each concentration was measured in quadruplicates. The oxygen concentration was calculated using the following equation (PreSens–Precision Sensing GmbH):O2 [µM] = 100 × (k0/IR − 1) / (k0/k100 − 1) × 2.83
The slope of the change of the oxygen concentrations over time was calculated giving the oxygen consumption rate [µM/min] for each well. The value obtained for aBHI was subtracted to eliminate the influence of the medium. The rate was finally normalized to the oxygen consumption rate of the wells that did contain cells but no test compounds.

[3] = system: LtP; assay: Uncoupling of LtP respiration in presence of oligomycin (OxoPlates); type: cell-based, Leishmania tarentolae; details: 38 µM Oligo; for uncoupling effect (recovery of O2 consumption in the presence of Oligo): 0.31–5.0 µM CCCP or 12.5–200.0 µM other compounds
Protocol: The uncoupling experiments using OxoPlates were carried out in analogy to oxygen consumption measurements of LtP. An oligomycin (Oligo) premix in aBHI was prepared leading to a final concentration of 38 µM oligomycin (Oligo). Each well of the second row was filled with 50 µL of aBHI. From the third row on, each well was filled with 50 µL of the Oligo premix and to the fourth row additional 50 µL Oligo premix was added. The respective amounts of the substances (Ac, AQ, AcEP1117, AcEP1118, AcEP1129, AcEP1130, CCCP) were added and a serial 1:2 dilution was performed. Measurements were carried out as described above. The oxygen consumption rates were normalized to the wells that contained only LtP. For each concentration measurements were done in triplicates.

[4] = resazurin assay, endpoint at 48 h, 10^5 J774/mL

Row | Structure (SMILES) | IC50 [1, 4] [µM] | influence on LtP respiration (oxygen consumption rate) [2] | uncoupling effect (recovery of O2 consumption in the presence of Oligo) [3] | concentration at which regain of oxygen consumption (uncoupling) is visible ([3]; declines at higher concentrations) [µM] | concentration from which oxygen consumption is significantly decreased ([2]; p < 0.05 vs 0 µM) [µM] | IC50 ([1]; J774, 48 h) [µM]
1 | CC12OOC(C)(c3ccccc31)c1ccccc12 [AcEP1118, 9,10-dimethyl-9,10-dihydro-9,10-epidioxidoanthracene] | 4.34 ± 1.91 | no considerable influence on the LtP respiration up to concentrations of 200 µM | – | – | – | –
2 | c1ccc2c(c1)C1OOC2c2ccccc21 [AcEP1117, 9,10-dihydro-9,10-epidioxidoanthracene] | 43.8 ± 36.1 | no considerable influence on the LtP respiration up to concentrations of 200 µM | no strong uncoupling was observed except for AcEP1117 at 200 µM | – | – | –
3 | O=C1c2ccccc2C(=O)c2ccccc21 [AQ, anthraquinone, reference compound] | 117 ± 24.3 | no considerable influence on the LtP respiration up to concentrations of 200 µM | Neither Ac nor AQ displayed an uncoupling effect | – | – | –
4 | N=C(N)c1ccc(OCCCCCOc2ccc(C(=N)N)cc2)cc1 [Pen, pentamidine, reference compound] | 14.4 ± 6.48 | – | – | – | – | –
5 | CC12OOC(c3ccccc31)c1ccccc12 [AcEP1129, 9-methyl-9,10-dihydro-9,10-epidioxidoanthracene] | 0.9 ± 0.28 | significant decline in the oxygen consumption rate at higher concentrations | a trend for uncoupling was observed at lower concentrations | 25 | 25 | –
6 | c1ccc2cc3ccccc3cc2c1 [Ac, anthracene] | – | no considerable influence on the LtP respiration up to concentrations of 200 µM | Neither Ac nor AQ displayed an uncoupling effect | – | – | > 400
7 | CCc1ccc2c(c1)C1OOC2c2ccccc21 (stereo not shown) [AcEP1130, 2-ethyl-9,10-dihydro-9,10-epidioxidoanthracene] | 7.82 ± 0.47 | significant decline in the oxygen consumption rate at higher concentrations | – | – | – | –
